Molecules are shown by their SMILES. Where two headings read alike, the source gives them in different places. A value given as a limit tells only on which side of the number the result lay.

The assay has as its target T1, BRM (Homo sapiens, UniProt P51531).
T1 construct: In-Cell Western Screen of BRM Degradation in SW1573 Cells; endogenous in cells; host or cells: SW1573
The experiment in a line: In-cell Western screen of BRM degradation in SW1573 cells (Dmax and DC50). It counts as cell-based. The essentials: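 SW1573 cells were treated with compound overnight (18-20 h; final DMSO 0.1%), then fixed in 4% PFA, permeabilized with Triton X-100 and blocked. BRM was detected by in-cell Western using 800 nm anti-rabbit and 680 nm anti-mouse secondaries, and Dmax and DC50 were derived from the LI-COR Odyssey signal.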

Setting [1] is: BRM degradation, SW1573 cells, read-out: DC50.
Where [2] appears, read: BRM degradation, SW1573 cells, tested at the top concentration of between 0.3 and 10 μM, read-out: Dmax (%) (% degraded).
The mark [3] stands for this setting: SW1573, % degraded, when tested at the top concentration of between 0.3 and 10 μM, read-out: BRM Dmax (%).
Where [4] appears, read: degradation of BRM, read-out: BRM DC50.
The mark [5] stands for this setting: target protein degradation, read-out: BRM DC50.
[6] abbreviates: BRM degradation, SW1573 cells, Table 2D, read-out: **Dmax (%) (% degraded).
The mark [7] stands for this setting: BRM degradation, SW1573 cells, Table 2D, read-out: *DC50.

T1 sequence (P51531 whole entry): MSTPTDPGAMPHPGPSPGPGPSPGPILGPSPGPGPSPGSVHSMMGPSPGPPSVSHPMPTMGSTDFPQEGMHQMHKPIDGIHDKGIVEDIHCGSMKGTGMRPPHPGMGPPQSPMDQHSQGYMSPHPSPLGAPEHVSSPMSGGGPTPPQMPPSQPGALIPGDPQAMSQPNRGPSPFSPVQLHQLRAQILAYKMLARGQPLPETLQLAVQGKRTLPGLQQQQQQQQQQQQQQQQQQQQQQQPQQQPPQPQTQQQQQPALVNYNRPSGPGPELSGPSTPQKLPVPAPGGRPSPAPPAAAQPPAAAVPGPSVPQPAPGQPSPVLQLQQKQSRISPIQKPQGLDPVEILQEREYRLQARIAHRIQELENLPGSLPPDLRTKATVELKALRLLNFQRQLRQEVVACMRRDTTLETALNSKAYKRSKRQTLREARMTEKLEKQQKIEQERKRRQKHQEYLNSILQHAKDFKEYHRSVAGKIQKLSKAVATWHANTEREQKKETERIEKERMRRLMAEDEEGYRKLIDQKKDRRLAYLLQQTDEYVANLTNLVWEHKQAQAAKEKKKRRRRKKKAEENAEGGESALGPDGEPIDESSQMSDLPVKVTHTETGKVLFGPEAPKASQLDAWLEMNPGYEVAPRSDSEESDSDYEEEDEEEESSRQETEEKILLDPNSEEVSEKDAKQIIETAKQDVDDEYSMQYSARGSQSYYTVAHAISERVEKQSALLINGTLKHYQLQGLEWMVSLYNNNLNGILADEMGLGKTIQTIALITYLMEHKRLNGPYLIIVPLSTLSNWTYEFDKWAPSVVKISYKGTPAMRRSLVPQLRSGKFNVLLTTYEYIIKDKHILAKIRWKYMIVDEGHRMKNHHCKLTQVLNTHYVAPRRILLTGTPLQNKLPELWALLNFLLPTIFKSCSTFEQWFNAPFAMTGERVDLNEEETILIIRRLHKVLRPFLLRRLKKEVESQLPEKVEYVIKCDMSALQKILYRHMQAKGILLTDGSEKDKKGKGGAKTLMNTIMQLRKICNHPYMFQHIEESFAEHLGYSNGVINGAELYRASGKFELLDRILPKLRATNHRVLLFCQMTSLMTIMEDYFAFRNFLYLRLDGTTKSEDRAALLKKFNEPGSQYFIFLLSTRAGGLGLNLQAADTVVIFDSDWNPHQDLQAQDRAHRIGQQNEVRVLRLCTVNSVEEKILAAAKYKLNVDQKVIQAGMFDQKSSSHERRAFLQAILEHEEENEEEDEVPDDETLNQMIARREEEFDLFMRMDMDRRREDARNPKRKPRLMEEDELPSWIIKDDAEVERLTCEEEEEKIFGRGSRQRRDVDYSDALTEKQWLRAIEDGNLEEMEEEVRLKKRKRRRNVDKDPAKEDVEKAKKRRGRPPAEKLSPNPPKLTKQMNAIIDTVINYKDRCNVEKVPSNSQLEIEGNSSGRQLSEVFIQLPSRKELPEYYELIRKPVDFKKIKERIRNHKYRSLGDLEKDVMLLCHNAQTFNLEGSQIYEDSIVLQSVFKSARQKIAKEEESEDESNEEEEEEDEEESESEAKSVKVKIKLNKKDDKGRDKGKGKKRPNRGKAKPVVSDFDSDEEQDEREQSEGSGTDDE

For orientation: DC50 means the concentration at which degradation of the target reaches its halfway point. The term Dmax denotes the greatest extent of degradation seen. Turning to `Cc1ncsc1-c1ccc([C@H](C)NC(=O)[C@@H]2C[C@@H](O)CN2C(=O)[C@H](c2cc(OCCCN3CCC(O[C@H]4C[C@H](Oc5cc(N6C7CCC6CN(c6cc(-c8ccccc8O)nnc6N)C7)ccn5)C4)CC3)no2)C(C)C)cc1` [compound 217, (2S,4R)-1-((2S)-2-(3-(3-(4-((1r,3S)-3-((4-(3-(3-amino-6-(2-hydroxyphenyl)pyridazin-4-yl)-3,8-diazabicyclo[3.2.1]octan-8-yl)pyridin-2-yl)oxy)cyclobutoxy)piperidin-1-yl)propoxy)isoxazol-5-yl)-3-methylbutanoyl)-4-hydroxy-N-((S)-1-(4-(4-methylthiazol-5-yl)phenyl)ethyl)pyrrolidine-2-carboxamide], the DC50 under setting [1] was in the range of 2.5 to 10 nM. Further, the Dmax under setting [2] was > 75%.

As for `Cc1ncsc1-c1ccc([C@H](C)NC(=O)[C@@H]2C[C@@H](O)CN2C(=O)[C@@H](c2cc(OCCN3CCN(CCO[C@H]4C[C@H](Oc5cc(N6C7CCC6CN(c6cc(-c8ccccc8O)nnc6N)C7)ccn5)C4)CC3)no2)C(C)C)cc1` [compound 408, (2S,4R)-1-((2R)-2-(3-(2-(4-(2-((1r,3r)-3-((4-(3-(3-amino-6-(2-hydroxyphenyl)pyridazin-4-yl)-3,8-diazabicyclo[3.2.1]octan-8-yl)pyridin-2-yl)oxy)cyclobutoxy)ethyl)piperazin-1-yl)ethoxy)isoxazol-5-yl)-3-methylbutanoyl)-4-hydroxy-N-((S)-1-(4-(4-methylthiazol-5-yl)phenyl)ethyl)pyrrolidine-2-carboxamide], the Dmax under setting [3] is > 75%. The DC50 under setting [4] is < 2.5 nM.

As for `Cc1ncsc1-c1ccc([C@H](C)NC(=O)[C@@H]2C[C@@H](O)CN2C(=O)[C@@H](c2cc(C#CCN3CCC(O[C@H]4C[C@H](Oc5cc(N6C7CCC6CN(c6cc(-c8ccccc8O)nnc6N)C7)ccn5)C4)CC3)no2)C(C)C)cc1` [compound 380, (2S,4R)-1-((2R)-2-(3-(3-(4-((1r,3R)-3-((4-(3-(3-amino-6-(2-hydroxyphenyl)pyridazin-4-yl)-3,8-diazabicyclo[3.2.1]octan-8-yl)pyridin-2-yl)oxy)cyclobutoxy)piperidin-1-yl)prop-1-yn-1-yl)isoxazol-5-yl)-3-methylbutanoyl)-4-hydroxy-N-((S)-1-(4-(4-methylthiazol-5-yl)phenyl)ethyl)pyrrolidine-2-carboxamide], under setting [3], the greatest degradation seen (Dmax) is > 75%. In addition, the DC50 under setting [5] is < 2.5 nM.

Regarding `Cc1ncsc1-c1ccc([C@H](C)NC(=O)[C@@H]2C[C@@H](O)CN2C(=O)[C@@H](c2cc(OCCOCCOCCCCN3CC4(CCN(c5cc(-c6ccccc6O)nnc5N)CC4)C3)no2)C(C)C)cc1` [compound 72, (2S,4R)-1-((R)-2-(3-(2-(2-(4-(7-(3-amino-6-(2-hydroxyphenyl)pyridazin-4-yl)-2,7-diazaspiro[3.5]nonan-2-yl)butoxy)ethoxy)ethoxy)isoxazol-5-yl)-3-methylbutanoyl)-4-hydroxy-N-((S)-1-(4-(4-methylthiazol-5-yl)phenyl)ethyl)pyrrolidine-2-carboxamide], the DC50 under setting [1] was 10 to 30 nM. Also, the Dmax (BRM degradation, SW1573 cells, when tested at the top concentration of between 0.3 and 10 μM, read-out: Dmax (%) (% degraded)) is > 75%.

Regarding `Cc1ncsc1-c1ccc([C@H](C)NC(=O)[C@@H]2C[C@@H](O)CN2C(=O)[C@@H](c2cc(OCCN3CC[C@H](OCCc4cc(N5C6CCC5CN(c5cc(-c7ccccc7O)nnc5N)C6)ccn4)C[C@@H]3C)no2)C(C)C)cc1` (racemic) [compound 568, (2S,4R)-1-((2R)-2-(3-(2-((2S,4S)-4-(2-(4-(3-(3-amino-6-(2-hydroxyphenyl)pyridazin-4-yl)-3,8-diazabicyclo[3.2.1]octan-8-yl)pyridin-2-yl)ethoxy)-2-methylpiperidin-1-yl)ethoxy)isoxazol-5-yl)-3-methylbutanoyl)-4-hydroxy-N-((S)-1-(4-(4-methylthiazol-5-yl)phenyl)ethyl)pyrrolidine-2-carboxamide], the Dmax under setting [6] is > 75%. Moreover, the DC50 under setting [7] was < 2.5 nM.

`Cc1ncsc1-c1ccc([C@H](C)NC(=O)[C@@H]2C[C@@H](O)CN2C(=O)[C@H](c2cc(OCCOCCOCCOCCn3cc(-c4cc(-c5ccccc5O)nnc4N)cn3)no2)C(C)C)cc1` [compound 181, (2S,4R)-1-((S)-2-(3-(2-(2-(2-(2-(4-(3-amino-6-(2-hydroxyphenyl)pyridazin-4-yl)-1H-pyrazol-1-yl)ethoxy)ethoxy)ethoxy)ethoxy)isoxazol-5-yl)-3-methylbutanoyl)-4-hydroxy-N-((S)-1-(4-(4-methylthiazol-5-yl)phenyl)ethyl)pyrrolidine-2-carboxamide]: the DC50 under setting [1] is > 30 nM.

`CC(C)[C@@H](C(=O)N1C[C@H](O)C[C@H]1C(=O)N[C@@H](C)c1ccc(C#N)cc1)c1cc(OCC#Cc2ncc(O[C@H]3C[C@H](Oc4cc(N5C6CCC5CN(c5cc(-c7ccccc7O)nnc5N)C6)ccn4)C3)cn2)no1` [compound 387, (2S,4R)-1-((2R)-2-(3-((3-(5-((1r,3R)-3-((4-(3-(3-amino-6-(2-hydroxyphenyl)pyridazin-4-yl)-3,8-diazabicyclo[3.2.1]octan-8-yl)pyridin-2-yl)oxy)cyclobutoxy)pyrimidin-2-yl)prop-2-yn-1-yl)oxy)isoxazol-5-yl)-3-methylbutanoyl)-N-((S)-1-(4-cyanophenyl)ethyl)-4-hydroxypyrrolidine-2-carboxamide]: under setting [3], the Dmax is > 75%. In addition, the DC50 under setting [5] is < 2.5 nM.

In the case of `Cc1ncsc1-c1ccc([C@H](C)NC(=O)C2C[C@@H](O)CN2C(=O)[C@@H](c2onc(OCCN3CCC(O[C@H]4C[C@H](Oc5cc(N6C7CCC6CN(c6cc(-c8ccccc8O)nnc6N)C7)ccn5)C4)CC3)c2Cl)C(C)C)cc1` (stereo partly drawn) [compound 362, (2S,4R)-1-((2R)-2-(3-(2-(4-((1r,3R)-3-((4-(3-(3-amino-6-(2-hydroxyphenyl)pyridazin-4-yl)-3,8-diazabicyclo[3.2.1]octan-8-yl)pyridin-2-yl)oxy)cyclobutoxy)piperidin-1-yl)ethoxy)-4-chloroisoxazol-5-yl)-3-methylbutanoyl)-4-hydroxy-N-((S)-1-(4-(4-methylthiazol-5-yl)phenyl)ethyl)pyrrolidine-2-carboxamide], the maximal degradation (Dmax) under setting [3] was > 75%. Besides, the DC50 under setting [5] was < 2.5 nM.

`Cc1nccn1-c1ccc([C@H](C)NC(=O)[C@@H]2C[C@@H](O)CN2C(=O)[C@@H](c2cc(OCCN3CCN(CCOc4cc(N5C6CCC5CN(c5cc(-c7ccccc7O)nnc5N)C6)ccn4)C[C@@H]3C)no2)C(C)C)cc1` [compound 553, (2S,4R)-1-((2R)-2-(3-(2-((2S)-4-(2-((4-(3-(3-amino-6-(2-hydroxyphenyl)pyridazin-4-yl)-3,8-diazabicyclo[3.2.1]octan-8-yl)pyridin-2-yl)oxy)ethyl)-2-methylpiperazin-1-yl)ethoxy)isoxazol-5-yl)-3-methylbutanoyl)-4-hydroxy-N-((S)-1-(4-(2-methyl-1H-imidazol-1-yl)phenyl)ethyl) pyrrolidine-2-carboxamide]: under setting [6], the Dmax is > 75%. Besides, the half-maximal degradation concentration (DC50) under setting [7] was < 2.5 nM.

For the molecule `Cc1ncsc1-c1ccc([C@H](C)NC(=O)[C@@H]2C[C@@H](O)CN2C(=O)[C@H](c2cc(OC/C=C/c3ccc(O[C@H]4C[C@H](Oc5cc(N6C7CCC6CN(c6cc(-c8ccccc8O)nnc6N)C7)ccn5)C4)cn3)no2)C(C)C)cn1` [compound 206, (2S,4R)-1-((2S)-2-(3-(((E)-3-(5-((1r,3S)-3-((4-(3-(3-amino-6-(2-hydroxyphenyl)pyridazin-4-yl)-3,8-diazabicyclo[3.2.1]octan-8-yl)pyridin-2-yl)oxy)cyclobutoxy)pyridin-2-yl)allyl)oxy)isoxazol-5-yl)-3-methylbutanoyl)-4-hydroxy-N-((S)-1-(6-(4-methylthiazol-5-yl)pyridin-3-yl)ethyl)pyrrolidine-2-carboxamide], the DC50 under setting [1] was in the range of 10 to 30 nM. The Dmax under setting [2] was > 75%.

Take `Cc1cc([C@@H](C(=O)N2C[C@H](O)C[C@H]2C(=O)N[C@@H](C)c2ccc(-c3scnc3C)cc2)[C@@H](C)COCCCCOc2cc(N3C4CCC3CN(c3cc(-c5ccccc5O)nnc3N)C4)ccn2)on1` [compound 431, (2S,4R)-1-((2S,3R)-4-(4-((4-(3-(3-amino-6-(2-hydroxyphenyl)pyridazin-4-yl)-3,8-diazabicyclo[3.2.1]octan-8-yl)pyridin-2-yl)oxy)butoxy)-3-methyl-2-(3-methylisoxazol-5-yl)butanoyl)-4-hydroxy-N-((S)-1-(4-(4-methylthiazol-5-yl)phenyl)ethyl)pyrrolidine-2-carboxamide]: the Dmax under setting [3] was > 75%. In addition, the DC50 under setting [4] is < 2.5 nM.

As for `Cc1ncsc1-c1ccc([C@H](C)NC(=O)[C@@H]2C[C@@H](O)CN2C(=O)[C@@H](c2cc(OCCN3CCC(O[C@H]4C[C@H](C#CCn5cc(-c6cc(-c7ccccc7O)nnc6N)cn5)C4)CC3)no2)C(C)C)cc1` [compound 238, (2S,4R)-1-((R)-2-(3-(2-(4-((1r,3R)-3-(3-(4-(3-amino-6-(2-hydroxyphenyl)pyridazin-4-yl)-1H-pyrazol-1-yl)prop-1-yn-1-yl)cyclobutoxy)piperidin-1-yl)ethoxy)isoxazol-5-yl)-3-methylbutanoyl)-4-hydroxy-N-((S)-1-(4-(4-methylthiazol-5-yl)phenyl)ethyl)pyrrolidine-2-carboxamide], under setting [1], the DC50 was < 2.5 nM. Further, the Dmax under setting [2] was > 75%.

Turning to `Cc1cc([C@@H](C(=O)N2C[C@H](O)C[C@H]2C(=O)N[C@@H](COCCCCCc2cc(-c3ccccc3O)nnc2N)c2ccc(-c3scnc3C)cc2)C(C)C)on1` [compound 529, (2S,4R)-N-((R)-2-((5-(3-amino-6-(2-hydroxyphenyl)pyridazin-4-yl)pentyl)oxy)-1-(4-(4-methylthiazol-5-yl)phenyl)ethyl)-4-hydroxy-1-((S)-3-methyl-2-(3-methylisoxazol-5-yl)butanoyl)pyrrolidine-2-carboxamide], the DC50 (BRM degradation, read-out: BRM DC50) was > 30 nM.

(Values after US12539292B2, “BRM targeting compounds and associated methods of use” (Arvinas Operations, Inc., priority 2018, dated 2026).)
